Test results reported in patent publication US10167296B2, “Sulfoximine substituted quinazolines for pharmaceutical compositions” (EVOTEC INTERNATIONAL GMBH, priority 2014, dated 2019).

Columns and labels:
[1] = biological target: MNK2a (pre-activated GST-MNK2a) (Homo sapiens (Human), UniProt Q9HBH9); assay: MNK2a in vitro kinase assay (assay 1), ADP-Glo; assay type: biochemical; settings: read-out: Mnk2 IC50
Description: A. MNK2a In Vitro Kinase Assay (Assay 1)
The inhibition of kinase activity of MNK2a was assessed using pre-activated GST-MNK2a. The white, 384-well OptiPlate F plates were purchased from PerkinElmer. The ADP-Glo Kinase Assay (including ultra pure ATP) was purchased from Promega (V9103). Activated MNK2a was obtained as described in WO2011/104340. […] ID No. 5 of WO 2011/104340 by the C-terminal —CONH2 group, was purchased from Thermo Fisher Scientific. All other materials were of highest grade commercially available. Compounds are tested in either serial dilutions or single dose concentrations. The compound stock solutions are 10 mM in 100% DMSO The serial compound dilutions are prepared in 100% DMSO followed by 1:27.3 intermediate dilution in assay buffer. The final DMSO concentration in assay will be <3%.
In the 384-well plates 3 μl of test compound from the intermediate dilution is mixed with 4 μl of the activated MNK2 enzyme (final concentration of 10 nM) and 4 μl of the peptide (final concentration of 25 μM)/ultra pure ATP (final concentration of 20 μM), all dissolved in assay buffer. This step is followed by an incubation time of 90 min, then 10 μl of ADP Glo reagent are added, followed by 40 min of incubation. Then 20 μl of kinase detection reagent are admixed. The plates are sealed and after an incubation period of 30 min, the luminescence signal is measured in an Envision reader to determine the amount of produced ADP. All incubation steps are performed at room temperature.
The assay buffer consists of 20 mM HEPES, 2 mM DTT, 0.01% BSA, 20 mM MgCl2 and 0.1% Pluronic F-127.
The luminescent signal generated is proportional to the ADP concentration produced and is correlated with activated MNK2 activity. The analysis of the data is performed by the calculation of the percentage of ATP consumption of activated MNK2 in the presence of the test compound compared to the consumption of ATP in the presence of activated MNK2 without compound. (RLU(sample)−RLU(low control))*100/(RLU(high value)−RLU(low control))
[RLU=Relative Luminescence Units]
Values of more than 100% CTL are normally related to compound/sample specific physico-chemical properties (e.g. solubility, light absorbance, fluorescence).
IC50 values based on dose response curves are calculated with the AssayExplorer software.

[2] = biological target: MNK1a (pre-activated GST-MNK1a) (Homo sapiens (Human), UniProt Q9BUB5); assay: MNK1 in vitro kinase assay (assay 2), Z'-LYTE; assay type: biochemical; settings: for inhibition at 1 µM: compound concentration of 1 μM, read-out: Mnk1 % Inh
From the text: B. MNK1 In Vitro Kinase Assay (Assay 2)
MNK1 Data can be obtained from the MNK1 Z′-LYTE® assay. The MNK1 Z′-LYTE® screening protocol and assay conditions are also described on www.invitrogen.com.
The assay is described as follows:
The Z′-LYTE® biochemical assay employs a fluorescence-based, coupled-enzyme format and is based on the differential sensitivity of phosphorylated and non-phosphorylated peptides to proteolytic cleavage. The peptide substrate is labeled with two fluorophores—one at each end—that make up a FRET pair.
In the primary reaction, the kinase transfers the gamma-phosphate of ATP to a single tyrosine, serine or threonine residue in a synthetic FRET-peptide. In the secondary reaction, a site-specific protease recognizes and cleaves non-phosphorylated FRET-peptides. Phosphorylation of FRET-peptides suppresses cleavage by the Development Reagent. Cleavage disrupts FRET between the donor (i.e., coumarin) and acceptor (i.e., fluorescein) fluorophores on the FRET-peptide, whereas uncleaved, phosphorylated FRET-peptides maintain FRET. A ratiometric method, which calculates the ratio (the Emission Ratio) of donor emission to acceptor emission after excitation of the donor fluorophore at 400 nm, is used to quantitate reaction progress, as shown in the equation below. Emission Ratio=Coumarin Emission(445 nm)/Fluorescein Emission(520 nm)
The inhibition of kinase activity of MNK1a was assessed using pre-activated GST-MNK1a. The 2×MKNK1 (MNK1) mixture is prepared in 50 mM HEPES pH 7.5, 0.01% BRIJ-35, 10 mM MgCl2, 4 mM MnCl2, 1 mM EGTA, 2 mM DTT. The final 10 μL Kinase Reaction consists of 13.5-54 ng MKNK1 (MNK1) and 2 μM Ser/Thr 07 in 50 mM HEPES pH 7.5, 0.01% BRIJ-35, 10 mM MgCl2, 2 mM MnCl2, 1 mM EGTA, 1 mM DTT. After the 1 hour Kinase Reaction incubation, 5 μL of a 1:32768 dilution of Development Reagent A is added.
The Test Compounds are screened in 1% DMSO (final) in the well.
All Peptide/Kinase Mixtures are diluted to a 2×working concentration in the MNK1 Kinase Buffer.
All ATP Solutions are diluted to a 4×working concentration in Kinase Buffer (50 mM HEPES pH 7.5, 0.01% BRIJ-35, 10 mM MgCl2, 1 mM EGTA).
Development Reagent Solution:
The Development Reagent is diluted in Development Buffer
Bar-coded Corning, low volume NBS, 384-well plate (Corning Cat. #3676)
1. 2.5 μL—4×Test Compound
2. 5 μL—2×Peptide/Kinase Mixture
5. 60-minute Kinase Reaction incubation at room temperature
6. 5 μL—Development Reagent Solution
8. 60-minute Development Reaction incubation at room temperature
9. Read on fluorescence plate reader and analyze the data
The following equations are used for each set of data points:
Correction for Background Fluorescence: FISample−FITCFI Ctl Emission Ratio (using values corrected for background fluorescence):Coumarin Emission (445 nm)/Fluorescein Emission (520 nm)
% Phosphorylation (% Phos): 1−((Emission Ratio×F100%)−C100%)/((C0%−C100%)+[Emission Ratio×(F100%−F0%)])*100
% Inhibition: 1−(% PhosSample/% Phos0% Inhibition Ctl)*100 FI=Fluorescence Intensity C100%=Average Coumarin emission signal of the 100% Phos. Control C0%=Average Coumarin emission signal of the 0% Phos. Control F100%=Average Fluorescein emission signal of the 100% Phos. Control F0%=Average Fluorescein emission signal of the 0% Phos. Control
SelectScreen® Kinase Profiling Service uses XLfit from IDBS. The dose response curve is curve fit to model number 205 (sigmoidal dose-response model).

Chain of MNK2a (pre-activated GST-MNK2a) (Q9HBH9 whole entry): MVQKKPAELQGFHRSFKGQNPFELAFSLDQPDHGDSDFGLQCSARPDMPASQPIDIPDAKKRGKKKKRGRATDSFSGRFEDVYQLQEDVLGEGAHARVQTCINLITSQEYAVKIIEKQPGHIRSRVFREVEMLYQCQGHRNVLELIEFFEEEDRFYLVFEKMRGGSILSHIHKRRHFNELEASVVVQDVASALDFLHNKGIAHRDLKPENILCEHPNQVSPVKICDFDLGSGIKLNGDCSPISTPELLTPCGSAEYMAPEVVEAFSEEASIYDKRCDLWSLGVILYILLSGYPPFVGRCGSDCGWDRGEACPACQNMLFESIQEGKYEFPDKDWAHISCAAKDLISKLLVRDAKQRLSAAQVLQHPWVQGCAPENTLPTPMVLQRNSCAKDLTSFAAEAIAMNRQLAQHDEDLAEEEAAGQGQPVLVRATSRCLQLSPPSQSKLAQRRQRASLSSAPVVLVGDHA
Chain of MNK1a (pre-activated GST-MNK1a) (Q9BUB5 other isoform, or with tags, fused parts or gaps): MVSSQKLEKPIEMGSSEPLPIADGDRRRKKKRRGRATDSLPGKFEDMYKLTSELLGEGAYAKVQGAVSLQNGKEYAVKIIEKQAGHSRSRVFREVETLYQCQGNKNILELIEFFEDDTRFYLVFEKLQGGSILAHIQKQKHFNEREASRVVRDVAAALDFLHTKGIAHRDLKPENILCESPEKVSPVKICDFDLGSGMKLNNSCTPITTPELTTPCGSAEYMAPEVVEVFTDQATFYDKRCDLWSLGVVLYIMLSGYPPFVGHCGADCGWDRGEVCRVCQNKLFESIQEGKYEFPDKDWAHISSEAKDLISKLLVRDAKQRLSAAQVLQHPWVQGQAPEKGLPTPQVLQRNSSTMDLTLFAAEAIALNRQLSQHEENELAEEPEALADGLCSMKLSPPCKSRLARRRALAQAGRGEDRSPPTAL

| IC50 [1] [nM] | inhibition at 1 µM [2] [%] | IC50 [2] [nM] | SMILES |
| --- | --- | --- | --- |
| 2.1 | 94 | – | COc1c(N=S2(=O)CCOCC2)cc2ncnc(Nc3ccc(F)cc3O[C@@H]3CO[C@@H]4CCO[C@@H]43)c2c1C [Example 2.17] |
| 1.4 | 107 | – | COc1c(N=S2(=O)CCCCC2)cc2ncnc(Nc3ccc(F)cc3O[C@@H]3CO[C@@H]4CCO[C@@H]43)c2c1C [Example 2.08] |
| 1.2 | – | 18 | COc1c(N=S2(=O)CCC2)cc2ncnc(Nc3ccc(F)cc3O[C@@H]3CO[C@H]4[C@@H]3OC[C@H]4O)c2c1C [Example 2.06] |
| 2.4 | – | 51 | Cc1c(OCCCN2CCCC2)c(N=S(C)(C)=O)cc2ncnc(Nc3ccc(F)cc3O[C@H](C)C(F)(F)F)c12 [Example 1.02] |
| 0.8 | – | 18 | COc1c(N=S(C)(C)=O)cc2ncnc(Nc3ccc(F)cc3O[C@@H]3CO[C@@H]4CCO[C@@H]43)c2c1C [Example 2.25] |
| 2 | – | 55 | COc1c(N=S(C)(C)=O)cc2ncnc(Nc3ccc(F)cc3O[C@H]3COC[C@@H]3O)c2c1C [Example 2.38] |
| 1.6 | 91 | – | COc1c(N=S2(=O)CCCC2)cc2ncnc(Nc3ccc(F)cc3O[C@H](C)C(F)(F)F)c2c1C [Example 2.54] |
| 1.4 | – | 28 | COc1c(N=S(C)(C)=O)cc2ncnc(Nc3ccc(F)cc3O[C@H](C)C(=O)NCC(F)(F)F)c2c1Cl [Example 2.47] |
| 2 | 94 | – | COc1c(N=S(C)(C)=O)cc2ncnc(Nc3ccc(F)cc3OC3CCOCC3)c2c1Cl [Example 2.34] |
| 4.4 | 100 | – | COc1c(N=S(C)(C)=O)cc2ncnc(Nc3ccc(F)cc3O[C@H](C)C(=O)NCC(F)(F)F)c2c1C [Example 2.24] |
| 1.2 | 105 | – | COc1c(N=S2(=O)CCCC2)cc2ncnc(Nc3ccc(F)cc3O[C@@H]3CO[C@@H]4CCO[C@@H]43)c2c1C [Example 2.03] |
| 2 | 105 | – | COc1c(N=S(C)(=O)CCO)cc2ncnc(Nc3ccc(F)cc3O[C@@H]3CO[C@@H]4CCO[C@@H]43)c2c1C (stereo partly shown) [Example 2.23] |
| 2.4 | – | – | Cc1c(OCCN2CCOCC2)c(N=S(C)(C)=O)cc2ncnc(Nc3ccc(F)cc3O[C@H](C)C(F)(F)F)c12 [Example 1.04] |
| 3.9 | – | 87 | COc1c(N=S2(=O)CCC2)cc2ncnc(Nc3cc4cn[nH]c4cc3OC(C)C)c2c1C [Example 2.27] |
| 1.9 | – | 33 | COc1c(N=S2(=O)CCC2)cc2ncnc(Nc3cccnc3O[C@@H]3CO[C@@H]4CCO[C@@H]43)c2c1C [Example 2.21] |
| 1.2 | – | 52 | COc1c(N=S2(=O)CCC2)cc2ncnc(Nc3ccc(F)cc3O[C@@H]3CO[C@@H]4CCO[C@@H]43)c2c1C [Example 2.42] |

| IC50 [1] [nM] | inhibition at 1 µM [2] [%] | IC50 [2] [nM] | SMILES |
| --- | --- | --- | --- |
| 1.8 | – | 15 | COc1c(N=S2(=O)CCCC2)cc2ncnc(Nc3ccc(F)cc3O[C@@H]3CO[C@H]4[C@@H]3OC[C@H]4OC)c2c1C [Example 2.36] |
| 2.3 | 97 | – | COc1c(N=S(C)(=O)C2CC2)cc2ncnc(Nc3ccc(F)cc3O[C@@H]3CO[C@@H]4CCO[C@@H]43)c2c1C (stereo partly shown) [Example 2.43] |
| 5.5 | – | 162 | Cc1c(OCCCN2CCN(C)C(=O)C2)c(N=S(C)(C)=O)cc2ncnc(Nc3ccc(F)cc3O[C@H](C)C(F)(F)F)c12 [Example 1.01] |
| 3.3 | – | 180 | Cc1c(OCC2CC2)c(N=S(C)(C)=O)cc2ncnc(Nc3ccc(F)cc3O[C@H](C)C(F)(F)F)c12 [Example 3.01] |
| 2.6 | – | 113 | COCCOc1c(N=S(C)(C)=O)cc2ncnc(Nc3ccc(F)cc3O[C@H](C)C(F)(F)F)c2c1C [Example 3.02] |
| 1.4 | – | 41 | COc1c(N=S2(=O)CCCC2)cc2ncnc(Nc3ccc(F)cc3O[C@H]3CC[C@H](O)CC3)c2c1C [Example 2.44] |
| 3.8 | – | 57 | COc1c(N=S(C)(C)=O)cc2ncnc(Nc3cc4cn[nH]c4cc3OC(C)C)c2c1C [Example 2.20] |
| 2.4 | – | 38 | COc1c(N=S2(=O)CCC2)cc2ncnc(Nc3ccc(F)cc3O[C@H]3CC[C@H](O)CC3)c2c1C [Example 2.58] |
| 1.4 | 108 | – | COc1c(N=S2(=O)CCC2)cc2ncnc(Nc3ccc(F)cc3O[C@@H]3CO[C@@H]4CCO[C@@H]43)c2c1Cl [Example 2.59] |
| 1.6 | 105 | – | COc1c(N=S2(=O)CCC2)cc2ncnc(Nc3ccc(F)cc3O[C@H](C)C(=O)N[C@@H](C)C(F)(F)F)c2c1C [Example 2.53] |
| 2.3 | 100 | – | COc1c(N=S2(=O)CCCC2)cc2ncnc(Nc3ccc(F)cc3O[C@H](C)C(=O)NCC(F)(F)F)c2c1C [Example 2.52] |
| 3.3 | 96 | – | COc1c(N=S2(=O)CCCC2)cc2ncnc(Nc3cccnc3O[C@@H]3CO[C@@H]4CCO[C@@H]43)c2c1C [Example 2.10] |
| 1.4 | – | 42 | Cc1c(OCCCN2CCOCC2)c(N=S2(=O)CCC2)cc2ncnc(Nc3ccc(F)cc3O[C@H](C)C(F)(F)F)c12 [Example 2.15] |
| 1.6 | 106 | – | COc1c(N=S2(=O)CCCC2)cc2ncnc(Nc3ccc(F)cc3O[C@@H]3CO[C@@H]4CCO[C@@H]43)c2c1Cl [Example 2.33] |
| 2.2 | – | – | COc1c(N=S(C)(C)=O)cc2ncnc(Nc3ccc(F)cc3O[C@@H]3CO[C@H]4[C@@H]3OC[C@H]4OC)c2c1Cl [Example 2.28] |
| 2.7 | – | – | COc1c(N=S2(=O)CCC2)cc2ncnc(Nc3ccc(F)cc3O[C@H]3COC[C@@H]3O)c2c1C [Example 2.07] |
